Columns and labels:
Type in all cases: cell-based
FGFR2 V564F = molecular target: T1, FGFR2 V564F (Homo sapiens, UniProt P21802, V564F); assay: Cell proliferation assay for Tel-FGFR2 V564F in BaF3; conditions: BaF3 cells expressing FGFR2 V564F fusion, 48 hrs, CellTiter Glo
T1 construct: P41212 (Transcription factor ETV6)
Method: (§1) By transfection, cell strains of the intracellular kinase domain fusion protein of TEL-FGFR2 WT or the intracellular domain fusion proteins containing FGFR2 V564, V564F, V564L, N549K and K659M mutations were stably expressed in Baf cells. On day 1, the cell suspension was plated into a 96-well plate containing growth medium (DMEM containing 1% Glutamax, 10% FBS and 1% Pen/Strep) at 2000-4000 cells/90 μL/per well, and then the mixture was incubated overnight at 37° C. and 5% CO2. On day 2, 10 μL of growth medium containing a 10-fold stock solution of test compound was added to the cell culture (9 dose points, 3× serial dilution, starting from 1 μM, finally 0.3% DMSO). After incubation at 37° C. and 5% CO2 for 48 hrs, 50 μL of CellTiter Glo (CTG) reagent was added to the cell-containing 96-well plate on day 3, and the plate was then incubated at room temperature for 10 min. Then relative light units (RLUs) were measured on a microplate reader with a luminescence detection module. RLU values were normalized to % survival, and concentration-response curves were plotted using Prism to calculate IC50 (nM).

FGFR2 N549K = molecular target: T2, FGFR2 N549K (Homo sapiens, UniProt P21802, N549K); assay: Cell proliferation assay for Tel-FGFR2 N549K in BaF3; conditions: BaF3 cells expressing FGFR2 N549K fusion, 48 hrs, CellTiter Glo
T2 construct: P41212 (Transcription factor ETV6)
Method: as §1

FGFR2 V564L = molecular target: T3, FGFR2 V564L (Homo sapiens, UniProt P21802, V564L); assay: Cell proliferation assay for Tel-FGFR2 V564L in BaF3; conditions: BaF3 cells expressing FGFR2 V564L fusion, 48 hrs, CellTiter Glo
T3 construct: P41212 (Transcription factor ETV6)
Method: as §1

FGFR3 V555M = molecular target: T4, FGFR3 V555M (Homo sapiens, UniProt P22607, V555M); assay: Cell proliferation assay for FGFR3 V555M in BaF3; conditions: BaF3 cells expressing FGFR3 V555M fusion, 48 hrs, CellTiter Glo
T4 construct: P41212 (Transcription factor ETV6)
Method: (§2) For the compounds of the Examples of the present invention, cell strains of TEL-FGFR3 WT intracellular kinase domain fusion protein or intracellular domain fusion protein containing FGFR3 V555M or FGFR3 N540K mutation were stably expressed in Baf cells by transfection and were used to determine the cell proliferation effect of BaF3-Tel-FGFR3 WT. FGFR3 V555M or FGFR3 N540K. The specific test process was as follows: • 1) The cell suspension was plated into a 96-well plate containing growth medium (DMEM containing 1% Glutamax, 10% FBS and 1% Pen/Strep) at 2000-4000 cells/90 μL/per well, and then the mixture was incubated overnight at 37° C. and 5% CO2. • 2) 10 μL of growth medium containing a 10-fold stock solution of test compound was added to the cell culture (9 dose points, 3× serial dilution, starting from 1 μM, finally 0.3% DMSO). • 3) The mixture was incubated at 37° C. and 5% CO2 for 48 hrs. • 4) 50 μL of CellTiter Glo (CTG) reagent was added to the cell-containing 96-well plate, and the plate was then incubated at room temperature for 10 min. • 5) Relative light units (RLUs) were measured on a microplate reader with a luminescence detection module. RLU values were normalized to % survival, and concentration-response curves were plotted using Prism to calculate IC50 (nM).

FGFR2 V564I = molecular target: T5, FGFR2 V564I (Homo sapiens, UniProt P21802, V564I); assay: Cell proliferation assay for Tel-FGFR2 V564I in BaF3; conditions: BaF3 cells expressing FGFR2 V564I fusion, 48 hrs, CellTiter Glo
T5 construct: P41212 (Transcription factor ETV6)
Method: as §1

FGFR2 K659M = molecular target: T6, FGFR2 K659M (Homo sapiens, UniProt P21802, K659M); assay: Cell proliferation assay for Tel-FGFR2 K659M in BaF3; conditions: BaF3 cells expressing FGFR2 K659M fusion, 48 hrs, CellTiter Glo
T6 construct: P41212 (Transcription factor ETV6)
Method: as §1

FGFR3 N540K = molecular target: T7, FGFR3 N540K (Homo sapiens, UniProt P22607, N540K); assay: Cell proliferation assay for FGFR3 N540K in BaF3; conditions: BaF3 cells expressing FGFR3 N540K fusion, 48 hrs, CellTiter Glo
T7 construct: P41212 (Transcription factor ETV6)
Method: as §2

T7 sequence (P22607 472-761 N540K limits assumed): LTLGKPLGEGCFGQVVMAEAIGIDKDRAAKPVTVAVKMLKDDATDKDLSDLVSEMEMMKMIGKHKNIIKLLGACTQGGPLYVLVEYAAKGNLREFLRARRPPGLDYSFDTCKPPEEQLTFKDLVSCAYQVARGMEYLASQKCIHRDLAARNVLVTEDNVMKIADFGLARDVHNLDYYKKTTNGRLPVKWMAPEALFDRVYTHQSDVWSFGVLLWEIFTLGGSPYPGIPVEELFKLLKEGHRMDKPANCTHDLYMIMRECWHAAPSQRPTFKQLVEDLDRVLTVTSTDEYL
T6 sequence (P21802 481-770 K659M limits assumed): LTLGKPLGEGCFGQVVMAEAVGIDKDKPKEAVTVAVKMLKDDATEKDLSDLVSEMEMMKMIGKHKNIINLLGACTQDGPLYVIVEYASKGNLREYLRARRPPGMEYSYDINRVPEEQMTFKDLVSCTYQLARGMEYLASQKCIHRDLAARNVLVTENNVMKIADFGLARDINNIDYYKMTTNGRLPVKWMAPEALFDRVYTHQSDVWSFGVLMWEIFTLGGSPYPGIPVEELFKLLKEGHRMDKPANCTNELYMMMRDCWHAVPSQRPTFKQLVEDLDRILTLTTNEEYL
T2 sequence (P21802 481-770 N549K limits assumed): as the sequence (P21802 481-770 K659M limits assumed) above, with N69K, M179K counted along it
T5 sequence (P21802 481-770 V564I limits assumed): as the sequence (P21802 481-770 K659M limits assumed) above, with V84I, M179K counted along it
T3 sequence (P21802 481-770 V564L limits assumed): as the sequence (P21802 481-770 K659M limits assumed) above, with V84L, M179K counted along it
T4 sequence (P22607 472-761 V555M limits assumed): as the sequence (P22607 472-761 N540K limits assumed) above, with K69N, V84M counted along it
T1 sequence (P21802 481-770 V564F limits assumed): as the sequence (P21802 481-770 K659M limits assumed) above, with V84F, M179K counted along it

Structure (SMILES)	IC50 (FGFR2 V564F)	IC50 (FGFR2 N549K)	IC50 (FGFR2 V564L)	IC50 (FGFR3 V555M)	IC50 (FGFR2 V564I)	IC50 (FGFR2 K659M)	IC50 (FGFR3 N540K)
C=CC(=O)N1CC[C@H](n2cc(C#Cc3ccc4oc(C5CC5)nc4c3)c3c(N)ncnc32)C1 [Example 1, (S)-1-(3-(4-amino-5-((2-cyclopropylbenzo[d]oxazol-5-yl)ethynyl)-7H-pyrrolo[2,3-d]pyrimidin-7-yl)pyrrolidin-1-yl)prop-2-en-1-one]	0.5 to 5 nM	0.5 to 5 nM	0.5 to 5 nM	0.5 to 5 nM	≤ 0.5 nM	0.5 to 5 nM	0.5 to 5 nM
C=CC(=O)N1CC[C@H](n2nc(C#Cc3ccc4oc(C5CC5)nc4c3)c3c(N)ncnc32)C1 [Example 20, (S)-1-(3-(4-amino-3-((2-cyclopropylbenzo[d]oxazol-5-yl)ethynyl)-1H-pyrazolo [3,4-d]pyrimidin-1-yl)pyrrolidin-1-yl)prop-2-en-1-one]	0.5 to 5 nM	0.5 to 5 nM	0.5 to 5 nM	0.5 to 5 nM	≤ 0.5 nM	5 to 50 nM	0.5 to 5 nM
C=CC(=O)N1CC[C@H](n2nc(C#Cc3cc4nc(C5(F)CC5)oc4cc3F)c3c(N)ncnc32)C1 [Example 36]	≤ 0.5 nM	–	–	0.5 to 5 nM	≤ 0.5 nM	0.5 to 5 nM	–
C=CC(=O)N1CC[C@H](n2cc(C#Cc3ccc4sc(C)nc4c3)c3c(N)ncnc32)C1 [Example 42, (S)-1-(3-(4-amino-5-((2-methylbenzo[d]thiazol-5-yl)ethynyl)-7H-pyrrolo[2,3-d]pyrimidin-7-yl)pyrrolidin-1-yl)prop-2-en-1-one]	≤ 0.5 nM	0.5 to 5 nM	0.5 to 5 nM	5 to 50 nM	–	5 to 50 nM	–
C=CC(=O)N1CC[C@H](n2cc(C#Cc3c(F)cc4sc(C5CC5)nc4c3F)c3c(N)ncnc32)C1 [Example 51, (S)-1-(3-(4-amino-5-((2-cyclopropyl-4,6-difluoro-benzo[d]thiazol-5-yl)ethynyl)-7H-pyrrolo[2,3-d]pyrimidin-7-yl)pyrrolidin-1-yl) prop-2-en-1-one]	≤ 0.5 nM	0.5 to 5 nM	0.5 to 5 nM	0.5 to 5 nM	≤ 0.5 nM	–	–
C=CC(=O)N1CC[C@H](n2nc(C#Cc3ccc4sc(CC)nc4c3)c3c(N)ncnc32)C1 [Example 53, (S)-1-(3-(4-amino-3-((2-ethylbenzo[d]thiazol-5-yl)ethynyl)-1H-pyrazolo[3,4-d]pyrimidin-1-yl)pyrrolidin-1-yl)prop-2-en-1-one]	0.5 to 5 nM	0.5 to 5 nM	0.5 to 5 nM	5 to 50 nM	≤ 0.5 nM	–	–
C=CC(=O)N1CC[C@H](n2nc(C#Cc3cc4nc(C)sc4cc3F)c3c(N)ncnc32)C1 [Example 57, (S)-1-(3-(4-amino-3-((6-fluoro-2-methylbenzo[d]thiazol-5-yl)ethynyl)-1H-pyrazolo[3,4-d]pyrimidin-1-yl)pyrrolidin-1-yl)prop-2-en-1-one]	≤ 0.5 nM	0.5 to 5 nM	0.5 to 5 nM	5 to 50 nM	≤ 0.5 nM	–	–
C=CC(=O)N1CC[C@H](n2nc(C#Cc3cc4nc(C5CC5)sc4cc3F)c3c(N)ncnc32)C1 [Example 59, (S)-1-(3-(4-amino-3-((2-cyclopropyl-6-fluorobenzo [d]thiazol-5-yl)ethynyl)-1H-pyrazolo[3,4-d]pyrimidin-1-yl)pyrrolidin-1-yl) prop-2-en-1-one]	0.5 to 5 nM	0.5 to 5 nM	0.5 to 5 nM	0.5 to 5 nM	≤ 0.5 nM	–	–
C=CC(=O)N1CC[C@H](n2nc(C#Cc3c(F)cc4sc(C5CC5)nc4c3F)c3c(N)ncnc32)C1 [Example 62, (S)-1-(3-(4-amino-3-((2-cyclopropyl-4,6-difluoro-benzo[d]thiazol-5-yl)ethynyl)-1H-pyrazolo[3,4-d]pyrimidin-1-yl)pyrrolidin-1-yl) prop-2-en-1-one]	≤ 0.5 nM	0.5 to 5 nM	0.5 to 5 nM	0.5 to 5 nM	≤ 0.5 nM	5 to 50 nM	0.5 to 5 nM
C=CC(=O)N1CC[C@H](n2nc(C#Cc3c(F)cc4oc(NC)nc4c3F)c3c(N)ncnc32)C1 [Example 67, (S)-1-(3-(4-amino-3-((4,6-difluoro-2-(methylamino)benzo[d]oxazol-5-yl)ethynyl)-1H-pyrazolo[3,4-d]pyrimidin-1-yl)pyrrolidin-1-yl)prop-2-en-1-one]	0.5 to 5 nM	–	–	0.5 to 5 nM	–	–	5 to 50 nM
C=CC(=O)N1C[C@@H](n2nc(C#Cc3c(F)cc4sc(C5CC5)nc4c3F)c3c(N)ncnc32)C[C@@H]1COC [Example 68, 1-((2R,4S)-4-(4-amino-3-((2-cyclopropyl-4,6-difluoro-benzo[d]thiazol-5-yl)ethynyl)-1H-pyrazolo[3,4-d]pyrimidin-1-yl)-2-(methoxy-methyl)pyrrolidin-1-yl) prop-2-en-1-one]	≤ 0.5 nM	≤ 0.5 nM	≤ 0.5 nM	≤ 0.5 nM	–	0.5 to 5 nM	0.5 to 5 nM
C=CC(=O)N1C[C@@H](n2nc(C#Cc3c(F)cc4sc(N5CCC5)nc4c3F)c3c(N)ncnc32)C[C@@H]1COC [Example 69, 1-((2R,4S)-4-(4-amino-3-((2-(azetidin-1-yl)-4,6-difluorobenzo[d]thiazol-5-yl)ethynyl)-1H-pyrazolo[3,4-d]pyrimidin-1-yl)-2-(methoxy-methyl)pyrrolidin-1-yl)prop-2-en-1-one]	≤ 0.5 nM	0.5 to 5 nM	0.5 to 5 nM	≤ 0.5 nM	–	5 to 50 nM	–
C=CC(=O)N1CC[C@H](n2nc(C#Cc3c(F)cc4oc(N5CCC5)nc4c3F)c3c(N)ncnc32)C1 [Example 74, (S)-1-(3-(4-amino-3-((2-(azetidin-1-yl)-4.6-difluoro-benzo[d]oxazol-5-yl)ethynyl)-1H-pyrazolo[3,4-d]pyrimidin-1-yl)pyrrolidin-1-yl)prop-2-en-1-one]	≤ 0.5 nM	0.5 to 5 nM	0.5 to 5 nM	≤ 0.5 nM	≤ 0.5 nM	5 to 50 nM	0.5 to 5 nM
C=CC(=O)N1CC[C@H](n2cc(C#Cc3c(F)cc4sc(C)nc4c3F)c3c(N)ncnc32)C1 [Example 75, (S)-1-(3-(4-amino-5-((4,6-difluoro-2-methylbenzo[d]thiazol-5-yl)ethynyl)-7H-pyrrolo[2,3-d]pyrimidin-7-yl)pyrrolidin-1-yl)prop-2-en-1-one]	0.5 to 5 nM	–	–	0.5 to 5 nM	≤ 0.5 nM	0.5 to 5 nM	–
CN(C)C/C=C/C(=O)N1CC(n2nc(C#Cc3c(F)cc4oc(N5CCC5)nc4c3F)c3c(N)ncnc32)C1 [Example 77, (E)-1-(3-(4-amino-3-((2-(azetidin-1-yl)-4,6-difluorobenzo[d]oxazol-5-yl)ethynyl)-1H-pyrazolo[3,4-d]pyrimidin-1-yl)azetidin-1-yl)-4-(dimethylamino)but-2-en-1-one]	≤ 0.5 nM	0.5 to 5 nM	0.5 to 5 nM	0.5 to 5 nM	–	5 to 50 nM	5 to 50 nM
CN(C)C/C=C/C(=O)N1CC(n2nc(C#Cc3c(F)cc4sc(C5CC5)nc4c3F)c3c(N)ncnc32)C1 [Example 78, (E)-1-(3-(4-amino-3-((2-cyclopropyl-4,6-difluoro-benzo[d]thiazol-5-yl)ethynyl)-1H-pyrazolo[3,4-d]pyrimidin-1-yl)azetidin-1-yl)-4-(dimethylamino)but-2-en-1-one]	≤ 0.5 nM	0.5 to 5 nM	0.5 to 5 nM	≤ 0.5 nM	–	5 to 50 nM	5 to 50 nM

— patent US20230303575A1, “FGFR AND MUTATION INHIBITOR THEREOF, PREPARATION METHOD THEREFOR AND USE THEREOF” (Abbisko Therapeutics Co., Ltd., priority 2020, published 2023)
